Assay [1] addresses T1, Human GPR120 short form (Homo sapiens, UniProt Q5NUL3).
T1 construct: expressed in transfected cells
T1 sequence (Q5NUL3 1-361): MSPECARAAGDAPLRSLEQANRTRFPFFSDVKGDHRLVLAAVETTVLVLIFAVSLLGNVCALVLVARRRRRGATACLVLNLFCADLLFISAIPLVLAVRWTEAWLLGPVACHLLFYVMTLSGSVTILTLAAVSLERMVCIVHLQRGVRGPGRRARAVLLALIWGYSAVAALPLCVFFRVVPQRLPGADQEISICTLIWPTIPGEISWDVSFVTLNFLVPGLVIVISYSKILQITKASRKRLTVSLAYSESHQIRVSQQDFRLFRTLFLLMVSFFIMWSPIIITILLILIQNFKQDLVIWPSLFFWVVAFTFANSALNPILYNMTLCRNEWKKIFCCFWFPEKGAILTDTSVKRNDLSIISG
Kind of assay: Human GPR120 calcium flux assay, Procedure Calcium B. It is filed as cell-based. Particulars: HEK-293 cells expressing human GPR120 short form, 4200 cells/well, FLIPR. Background: Calcium assays in cells follow changes in intracellular calcium, usually with a dye or a luminescent sensor.

Assay [2] addresses T2, short form of the GPR120 receptor (Homo sapiens, UniProt Q5NUL3).
T2 construct: host or cells: PathHunter CHO-K1 GPR120S β-Arrestin Cell Line
Kind of assay: Human GPR120 DiscoveRx PathHunter β-Arrestin assay, Procedure β-arrestin B. In kind it is cell-based. Particulars: PathHunter CHO-K1 GPR120S β-Arrestin cell line, 5000 cells/well. From the text:
The binding of an agonist (medium/long chain fatty acids or small molecule agonists) to the G-protein-coupled receptor GPR120 activates phospholipase C, leading to release of intracellular Ca^+2 through the generation of inositol 1,4,5-trisphosphate (InsP3 or IP3). GPR120 activation can also trigger intracellular signaling via recruitment of β-Arrestin. In the present method, agonist-induced activation of the human GPR120 receptor is monitored through the use of PathHunter CHO-K1 GPR120 β-Arrestin Cell Line engineered by DiscoveRx, as detailed below. The cell lines are designed to co-express both the ProLink/Enzyme Donor (PK)-tagged GPCR and the Enzyme […] (EA)-tagged Beta-Arrestin fusion proteins. Upon GPR120 receptor stimulation/activation, the EA-tagged β-Arrestin portion is translocated to the tagged receptor, where the two enzyme fragments are brought within close proximity. Under these conditions, these fragments can interact and form an active Beta-gal enzyme complex through Enzyme Fragment Complementation (EFC). This active Beta-gal complex can enzymatically hydrolyse the substrate to produce a detectable light signal; therefore, activation as a function of agonist concentration can be expressed as an EC50 value to determine relative compound activities. This in vitro assay therefore serves to assess compound agonist activity of the GPR120.
In Procedure β-arrestin B the cells used were PathHunter CHO-K1 GPR120S β-Arrestin Cell Line, expressing the short form of the GPR120 receptor (Accession #NM_181745), with 5000 cells/well.
The selected CHO-K1 GPR120 β-Arrestin cells were cultured in Ham's F12 media supplemented with 10% fetal bovine serum (FBS), 1% Glutamine, 1×p/s, 800 μg/ml G418 and 300 μg/ml Hygromycin B (for selection). Cell stocks were maintained and grown in a sub-confluent state using standard cell culture procedures. The day before the experiment, the cells were harvested with non-enzymatic cell dissociation buffer and re-suspended in complete growth media at the desired concentration. A Corning 384-plate was then seeded with the proper number of cells in a volume of 25 μL, per well. The seeded plates were incubated overnight at 37° C.
On the day of the experiment, the Assay Buffer containing (a) HBSS with Ca^++ and Mg^++, (b) 20 mM HEPES, and (c) 0.1% BSA stabilizer (pH 7.4) was prepared. The growth medium was gently removed from the cell plates and 20 μL of Assay Buffer added to each well. The plate was then incubated at 37° C. for 60 mins. Test compounds were serially diluted in Assay Buffer to desired concentrations (more particularly, to one or more of the following μM concentrations: 25 μM, 12.5 μM, 6.25 μM, 3.125 μM, 1.562 μM, 0.781 μM, 0.391 μM, 0.195 μM, 0.098 μM, 0.049 μM, 0.024 μM, 0.012 μM). Five μl of compound dilution was then added to each well and the plate incubated at 37° C. for 90 mins. The detection reagents were prepared according to the manufacture's instruction. Twelve μL of the detection reagents were added to each well and the plate incubated at room temperature for 60 mins.
The plates were read on an EnVision instrument, using Protocol name: Luminescence, Plate type: 384 Costar, Measurement height: 3 mm, Measurement time: 1 s, Aperture: 384 Plate aperture. The % activity relative to the positive control was calculated using the following equation:
The % Activity values were plotted versus the concentration of test compound and fitted to a sigmoidal dose-response curve with a Hill slope=1 (fixed value) using nonlinear regression with GraphPad Prism 5.0 to calculate the EC50 values. The Fitting Equation was: Y=Bottom+(Top−Bottom)/(1+10^((LogEC50−X)*HillSlope)), where X is the log of the concentration and Y is the response.

The structures appear in SMILES notation.

T2 sequence (P32121 whole entry partner, one chain of several): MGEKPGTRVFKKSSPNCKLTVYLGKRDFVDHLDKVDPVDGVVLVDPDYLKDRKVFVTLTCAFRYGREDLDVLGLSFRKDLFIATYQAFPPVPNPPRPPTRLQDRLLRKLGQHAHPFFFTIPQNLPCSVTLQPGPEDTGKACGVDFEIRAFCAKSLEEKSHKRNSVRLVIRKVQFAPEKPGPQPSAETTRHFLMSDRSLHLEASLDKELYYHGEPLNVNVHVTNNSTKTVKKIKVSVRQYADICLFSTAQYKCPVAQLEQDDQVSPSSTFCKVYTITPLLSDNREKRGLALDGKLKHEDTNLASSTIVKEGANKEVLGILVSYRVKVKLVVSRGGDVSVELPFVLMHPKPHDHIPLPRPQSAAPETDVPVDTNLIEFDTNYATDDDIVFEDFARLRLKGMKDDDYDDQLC

Broadly, the EC50 is the midpoint of the concentration-response curve. For `Cc1ccc(-n2ccc(C(F)(F)F)c2COc2ccc(CCC(=O)O)c(C)c2C)c(F)c1` [Compound 73, 3-(4-{[1-(2-Fluoro-4-methylphenyl)-3-(trifluoromethyl)-1H-pyrrol-2-yl]methoxy}-2,3-dimethylphenyl)propanoic acid], the EC50 in assay [1] is 210 nM; in assay [2], 749 nM.

For the compound `Cc1c(CCC(=O)O)ccc(OCc2c(C(F)(F)F)ccn2-c2ccc(Cl)cc2F)c1C` [Compound 74, 3-(4-{[1-(4-Chloro-2-fluorophenyl)-3-(trifluoromethyl)-1H-pyrrol-2-yl]methoxy}-2,3-dimethylphenyl)propanoic acid], the concentration giving a half-maximal response (EC50) was determined as 167 nM in assay [1] and 797 nM in assay [2].

Turning to `O=C(O)CCc1cc(F)c(OCc2c(C(F)(F)F)ccn2-c2ccc(F)cc2F)c(F)c1` [Compound 75, 3-(4-{[1-(2,4-Difluorophenyl)-3-(trifluoromethyl)-1H-pyrrol-2-yl]methoxy}-3,5-difluorophenyl)propanoic acid], the EC50 turned out to be 156 nM in assay [1] and 577 nM in assay [2].

Take `O=C(O)CCc1cc(F)c(OCc2c(C(F)(F)F)ccn2-c2ccc(F)c(F)c2)c(F)c1` [Compound 76, 3-(4-{[1-(3,4-Difluorophenyl)-3-(trifluoromethyl)-1H-pyrrol-2-yl]methoxy}-3,5-difluorophenyl)propanoic acid]: the 50% effective concentration (EC50) in assay [1] was determined as 175 nM; in assay [2], 1120 nM.

With `Cc1c(CCC(=O)O)ccc(OCc2c(C(F)(F)F)ccn2-c2ccc(F)cc2F)c1C` [Compound 77, 3-(4-{[1-(2,4-Difluorophenyl)-3-(trifluoromethyl)-1H-pyrrol-2-yl]methoxy}-2,3-dimethylphenyl)propanoic acid], the EC50 was 266 nM in assay [1] and 1060 nM in assay [2].

`Cc1c(CCC(=O)O)ccc(OCc2c(C(F)(F)F)ccn2-c2ccc(F)c(F)c2)c1C` [Compound 78, 3-(4-{[1-(3,4-Difluorophenyl)-3-(trifluoromethyl)-1H-pyrrol-2-yl]methoxy}-2,3-dimethylphenyl)propanoic acid]: the figures for the EC50 in assay [1] and in assay [2] were 305 nM and 1420 nM, respectively.

The values are drawn from patent publication US8912227B1, “Bicyclic pyrrole derivatives useful as agonists of GPR120” (Janssen Pharmaceutica NV, priority 2014, dated 2014).
